# Measurements reported in PubChem BioAssay AID1845210 (Molecular Pharmacology Branch, DTP, NCI, 2023).
# System: NCI-H226 complex tumor spheroids, viability
# Experiment: Anticancer human tumor NCI-H226 cell line growth inhibition;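 further: spheroids exposed to compound for 7 days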;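 on viability, T/C: 100% = DMSO vehicle control viability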
# Conditions: for IC50: curve of first compound; for viability, T/C: stronger effect = lower value
# In short: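 Complex spheroids of malignant cells with endothelial cells and mesenchymal stem cells; agents alone or combined, from near clinical Cmax (or 10 microM if unknown) down in half-log steps, 0.25% DMSO final.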
# [1] = second compound 0.003 µM, first compound 0.0316 µM
# [2] = second compound 0.003 µM, first compound 0.1 µM
# [3] = second compound 0.003 µM, first compound 0.316 µM
# [4] = second compound 0.003 µM, first compound 1 µM
# [5] = second compound 0.003 µM, first compound 3.16 µM
# [6] = second compound 0.003 µM, first compound 10 µM
# [7] = second compound 0.00949 µM, first compound 0.0316 µM
# [8] = second compound 0.00949 µM, first compound 0.1 µM
# [9] = second compound 0.00949 µM, first compound 0.316 µM
# [10] = second compound 0.00949 µM, first compound 1 µM
# [11] = second compound 0.00949 µM, first compound 3.16 µM
# [12] = second compound 0.00949 µM, first compound 10 µM
# [13] = second compound 0.03 µM, first compound 0.0316 µM
# [14] = second compound 0.03 µM, first compound 0.1 µM
# [15] = second compound 0.03 µM, first compound 0.316 µM
# [16] = second compound 0.03 µM, first compound 1 µM
# [17] = second compound 0.03 µM, first compound 3.16 µM
# [18] = second compound 0.03 µM, first compound 10 µM
# [19] = second compound 0.0949 µM, first compound 0.0316 µM
# [20] = second compound 0.0949 µM, first compound 0.1 µM
# [21] = second compound 0.0949 µM, first compound 0.316 µM
# [22] = second compound 0.0949 µM, first compound 1 µM
# [23] = second compound 0.0949 µM, first compound 3.16 µM
# [24] = second compound 0.0949 µM, first compound 10 µM
# [25] = second compound 0.3 µM, first compound 0.0316 µM
# [26] = second compound 0.3 µM, first compound 0.1 µM
# [27] = second compound 0.3 µM, first compound 0.316 µM
# [28] = second compound 0.3 µM, first compound 1 µM
# [29] = second compound 0.3 µM, first compound 3.16 µM
# [30] = second compound 0.3 µM, first compound 10 µM
compound,measurement,setting,value
Cc1cc(C)c(CNC(=O)c2cc(-c3ccc(CN4CCOCC4)cc3)cc3c2cnn3C2CCCC2)c(=O)[nH]1 + CC[C@@]1(O)C(=O)OCc2c1cc1n(c2=O)Cc2cc3c(CN(C)C)c(O)ccc3nc2-1,IC50,second compound 0.003 µM,> 10 µM
same,IC50,second compound 0.00949 µM,> 10 µM
same,IC50,second compound 0.03 µM,> 10 µM
same,IC50,second compound 0.0949 µM,> 10 µM
same,IC50,second compound 0.3 µM,> 10 µM
same,"viability, T/C",[1],101%
same,"viability, T/C",[2],96.8%
same,"viability, T/C",[3],98.3%
same,"viability, T/C",[4],85.3%
same,"viability, T/C",[5],95.7%
same,"viability, T/C",[6],108%
same,"viability, T/C",[7],87.2%
same,"viability, T/C",[8],88.8%
same,"viability, T/C",[9],92.4%
same,"viability, T/C",[10],82.9%
same,"viability, T/C",[11],78.6%
same,"viability, T/C",[12],96.3%
same,"viability, T/C",[13],91.8%
same,"viability, T/C",[14],78.3%
same,"viability, T/C",[15],87.6%
same,"viability, T/C",[16],88.9%
same,"viability, T/C",[17],79.7%
same,"viability, T/C",[18],95.3%
same,"viability, T/C",[19],70.7%
same,"viability, T/C",[20],72.9%
same,"viability, T/C",[21],71%
same,"viability, T/C",[22],77.5%
same,"viability, T/C",[23],76.1%
same,"viability, T/C",[24],106%
same,"viability, T/C",[25],64%
same,"viability, T/C",[26],62.4%
same,"viability, T/C",[27],67%
same,"viability, T/C",[28],68.5%
same,"viability, T/C",[29],79.8%
same,"viability, T/C",[30],95.2%
CNCc1ccc(-c2cc(-c3nc(-c4ccc(S(=O)(=O)C(C)C)cc4)cnc3N)on2)cc1 + Cn1nnc2c(C(N)=O)ncn2c1=O,IC50,second compound 1 µM,0.756 µM
same,IC50,second compound 3.16 µM,0.717 µM
same,IC50,second compound 10 µM,0.755 µM
same,IC50,second compound 31.6 µM,1.03 µM
same,IC50,second compound 100 µM,1.37 µM
same,"viability, T/C","second compound 1 µM, first compound 0.00949 µM",110%
same,"viability, T/C","second compound 1 µM, first compound 0.03 µM",125%
same,"viability, T/C","second compound 1 µM, first compound 0.0949 µM",138%
same,"viability, T/C","second compound 1 µM, first compound 0.3 µM",140%
same,"viability, T/C","second compound 1 µM, first compound 0.949 µM",30.7%
same,"viability, T/C","second compound 1 µM, first compound 3 µM",0.26%
same,"viability, T/C","second compound 3.16 µM, first compound 0.00949 µM",96.1%
same,"viability, T/C","second compound 3.16 µM, first compound 0.03 µM",119%
same,"viability, T/C","second compound 3.16 µM, first compound 0.0949 µM",127%
same,"viability, T/C","second compound 3.16 µM, first compound 0.3 µM",134%
same,"viability, T/C","second compound 3.16 µM, first compound 0.949 µM",27.6%
same,"viability, T/C","second compound 3.16 µM, first compound 3 µM",0.51%
same,"viability, T/C","second compound 10 µM, first compound 0.00949 µM",117%
same,"viability, T/C","second compound 10 µM, first compound 0.03 µM",117%
same,"viability, T/C","second compound 10 µM, first compound 0.0949 µM",131%
same,"viability, T/C","second compound 10 µM, first compound 0.3 µM",128%
same,"viability, T/C","second compound 10 µM, first compound 0.949 µM",31.8%
same,"viability, T/C","second compound 10 µM, first compound 3 µM",0.23%
same,"viability, T/C","second compound 31.6 µM, first compound 0.00949 µM",110%
same,"viability, T/C","second compound 31.6 µM, first compound 0.03 µM",117%
same,"viability, T/C","second compound 31.6 µM, first compound 0.0949 µM",144%
same,"viability, T/C","second compound 31.6 µM, first compound 0.3 µM",123%
same,"viability, T/C","second compound 31.6 µM, first compound 0.949 µM",53.7%
same,"viability, T/C","second compound 31.6 µM, first compound 3 µM",1.75%
same,"viability, T/C","second compound 100 µM, first compound 0.00949 µM",119%
same,"viability, T/C","second compound 100 µM, first compound 0.03 µM",125%
same,"viability, T/C","second compound 100 µM, first compound 0.0949 µM",123%
same,"viability, T/C","second compound 100 µM, first compound 0.3 µM",114%
same,"viability, T/C","second compound 100 µM, first compound 0.949 µM",73.3%
same,"viability, T/C","second compound 100 µM, first compound 3 µM",0.35%
COc1cc(C)[nH]c(=O)c1CN1CCc2c(Cl)cc(C(OC)C3COC3)c(Cl)c2C1=O (stereo not given) + CC[C@@]1(O)C(=O)OCc2c1cc1n(c2=O)Cc2cc3c(CN(C)C)c(O)ccc3nc2-1,IC50,second compound 0.003 µM,> 10 µM
same,IC50,second compound 0.00949 µM,> 10 µM
same,IC50,second compound 0.03 µM,> 10 µM
same,IC50,second compound 0.0949 µM,> 10 µM
same,IC50,second compound 0.3 µM,> 10 µM
same,"viability, T/C",[1],93.7%
same,"viability, T/C",[2],123%
same,"viability, T/C",[3],110%
same,"viability, T/C",[4],122%
same,"viability, T/C",[5],112%
same,"viability, T/C",[6],98.5%
same,"viability, T/C",[7],88.6%
same,"viability, T/C",[8],102%
same,"viability, T/C",[9],100%
same,"viability, T/C",[10],95.8%
same,"viability, T/C",[11],99.2%
same,"viability, T/C",[12],97.3%
same,"viability, T/C",[13],86.4%
same,"viability, T/C",[14],87%
same,"viability, T/C",[15],80.6%
same,"viability, T/C",[16],92.7%
same,"viability, T/C",[17],92.6%
same,"viability, T/C",[18],87.4%
same,"viability, T/C",[19],97.3%
same,"viability, T/C",[20],93.1%
same,"viability, T/C",[21],86.4%
same,"viability, T/C",[22],92.9%
same,"viability, T/C",[23],88.3%
same,"viability, T/C",[24],81.6%
same,"viability, T/C",[25],71.4%
same,"viability, T/C",[26],73.3%
same,"viability, T/C",[27],72%
same,"viability, T/C",[28],75.2%
same,"viability, T/C",[29],69.9%
same,"viability, T/C",[30],72.9%
CC(C)n1c(=O)n(C)c2cnc3cc(F)c(-c4ccc(OCCCN5CCCCC5)nc4)cc3c21 + Cn1nnc2c(C(N)=O)ncn2c1=O,IC50,second compound 1 µM,5.83 µM
same,IC50,second compound 3.16 µM,5.92 µM
same,IC50,second compound 10 µM,6 µM
same,IC50,second compound 31.6 µM,5.72 µM
same,IC50,second compound 100 µM,> 10 µM
same,"viability, T/C","second compound 1 µM, first compound 0.0316 µM",111%
same,"viability, T/C","second compound 1 µM, first compound 0.1 µM",115%
same,"viability, T/C","second compound 1 µM, first compound 0.316 µM",120%
same,"viability, T/C","second compound 1 µM, first compound 1 µM",118%
same,"viability, T/C","second compound 1 µM, first compound 3.16 µM",102%
same,"viability, T/C","second compound 1 µM, first compound 10 µM",4.4%
same,"viability, T/C","second compound 3.16 µM, first compound 0.0316 µM",112%
same,"viability, T/C","second compound 3.16 µM, first compound 0.1 µM",113%
same,"viability, T/C","second compound 3.16 µM, first compound 0.316 µM",114%
same,"viability, T/C","second compound 3.16 µM, first compound 1 µM",102%
same,"viability, T/C","second compound 3.16 µM, first compound 3.16 µM",104%
same,"viability, T/C","second compound 3.16 µM, first compound 10 µM",4.91%
same,"viability, T/C","second compound 10 µM, first compound 0.0316 µM",114%
same,"viability, T/C","second compound 10 µM, first compound 0.1 µM",119%
same,"viability, T/C","second compound 10 µM, first compound 0.316 µM",109%
same,"viability, T/C","second compound 10 µM, first compound 1 µM",114%
same,"viability, T/C","second compound 10 µM, first compound 3.16 µM",109%
same,"viability, T/C","second compound 10 µM, first compound 10 µM",3.29%
same,"viability, T/C","second compound 31.6 µM, first compound 0.0316 µM",117%
same,"viability, T/C","second compound 31.6 µM, first compound 0.1 µM",108%
same,"viability, T/C","second compound 31.6 µM, first compound 0.316 µM",110%
same,"viability, T/C","second compound 31.6 µM, first compound 1 µM",99.4%
same,"viability, T/C","second compound 31.6 µM, first compound 3.16 µM",99.9%
same,"viability, T/C","second compound 31.6 µM, first compound 10 µM",3.07%
same,"viability, T/C","second compound 100 µM, first compound 0.0316 µM",122%
same,"viability, T/C","second compound 100 µM, first compound 0.1 µM",115%
same,"viability, T/C","second compound 100 µM, first compound 0.316 µM",115%
same,"viability, T/C","second compound 100 µM, first compound 1 µM",117%
same,"viability, T/C","second compound 100 µM, first compound 3.16 µM",105%
same,"viability, T/C","second compound 100 µM, first compound 10 µM",64%
